From US20120029054A1, “RNA Interference Mediated Inhibition of GATA Binding Protein 3 (GATA3) Gene Expression Using Short Intefering Nucleic Acid (siNA)” (Merck Sharp & Dohme Corp., priority 2009, published 2012)
[invAb] = inverted abasic unit; m = 2'-O-methyl; r = 2'-OH (RNA); f = 2'-fluoro

Columns and labels:
GATA3 mRNA [1] = assay: GATA3 mRNA knock-down (Taqman qRT-PCR) after RNAiMax transfection of mouse RAG cells; assay type: cell-based; conditions: 10 nM siNA, 24 hrs, average of 2 experiments
Procedure: RAG (murine; ATCC cat# CCL-142): Cells were cultured at 37° C. in the presence of 5% CO2 and grown in Eagle's Minimum Essential medium with supplemented with 10% of fetal bovine serum, 100 μg/mL of streptomycin, and 100 U/mL penicillin.
(§1) Cells were plated in all wells of a tissue-culture treated, 96-well plate at a final count of 5000 cells/well in 100 μL of the appropriate culture media. The cells were cultured for 24 hours after plating at 37° C. in the presence of 5% CO2.
(§2) After 24 hours, complexes containing siNA and RNAiMax were created as follows: A solution of RNAiMax diluted 33-fold in OPTI-MEM was prepared. In parallel, solutions of the siNAs for testing were prepared to a final concentration of 120 nM in OPTI-MEM. After incubation of RNAiMax/OPTI-MEM solution at room temperature for 5 min, an equal volume of the siNA solution and the RNAiMax solution were added together for each of the siNAs.
(§3) This solution was incubated at room temperature for 20 minutes. After incubation, 20 uL of the solution was added to each of the relevant wells. The final concentration of siNA in each well was 10 nM and the final volume of RNAiMax in each well was 0.3 ul.
(§4) The time of incubation with the RNAiMax-siNA complexes was 24 hours and there was no change in media between transfection and harvesting, unless otherwise indicated.
(§5) RNA was extracted from a 96-well plate using the TaqMan® Gene Expression Cells-to-CT™ Kit (Cat#4399002) with a modified protocol. Briefly, a 60 uL (1 plate) or 110 uL (2 plates) of the Lysis Solution with DNase I was dispensed into each well of the Lysis Buffer Plate (twin.tec full skirt plate). The lysis buffer and stop plates were stored at 4° C. until the cells were washed.
(§6) The plate was spun at 1100 rpm for 5 minutes. The culture medium was aspirated and discarded from the wells of the culture plate. The lysis was performed automatically using a BioMek FX instrument and method. After the Biomek method was completed, the lysis plate was incubated for 2 min. at room temperature. The lysis plate can be stored for 2 hours at 4° C., or at −20° C. or −80° C. for two months.
(§7) Each well of the reverse transcription plate required 10 uL of 2× reverse transcriptase Buffer, 1 uL of 20× reverse transcription enzyme and 2 uL of nuclease-free water. The reverse transcription master mix was prepared by mixing 2× reverse transcription buffer, 20× reverse transcription enzyme mix, and nuclease-free water. 13 uL of the reverse transcription master mix was dispensed into each well of the reverse transcription plate (semi-skirted). A separate reverse transcription plate was prepared for each cell plate. The plate was loaded onto a Biomek NX or Biomek FX Dual-96 and the Biomek method was run. The program is programmed to automatically added 7 uL of lysate from the cell lysis procedure described above into each well of the reverse transcription plate. The plate is sealed and spun on a centrifuge (1000 rpm for 30 seconds) to settle the contents to the bottom of the reverse transcription plate. The plate is placed in a thermocycler at 37° C. for 60 min, 95° C. for 5 min, and 4° C. until the plate is removed from the thermocycler. Upon removal, if not used immediately, the plate was frozen at −20° C.
(§8) A series of probes and primers were used to detect the various mRNA transcripts of the genes of β-Actin (human cell line only), and of GATA3 and GAPDH in mouse and human cell lines. All Taqman probes and primers for the experiments here-in described were supplied as pre-validated sets by Applied Biosystems, Inc. (see Table 2).
(§9) The assays were performed on an ABI 7900 instrument, according to the manufacturer's instructions. A TaqMan Gene Expression Master Mix (provided in the Cells-to-CT™, Applied Biosystems, Cat #4399002) was used. The PCR reactions were carried out at 50° C. for 2 min, 95° C. for 20 min followed by 40 cycles at 95° C. for 15 secs and 60° C. for 1 min. […]

GATA3 mRNA [2] = assay: GATA3 mRNA knock-down (Taqman qRT-PCR) after RNAiMax transfection of human MCF7 cells; screen and IC50 dose response; assay type: cell-based; conditions: 10 nM siNA, MCF7 cells, 24 hrs, average of 3 experiments
Procedure: MCF7 (human; ATCC cat# HTB-22): Cells were cultured at 37° C. in the presence of 5% CO2 and grown in Eagle's Minimum Essential medium with supplemented with fetal bovine serum at a final concentration of 10% and 100 μg/mL of streptomycin and 100 U/mL penicillin.
as §1, §2, §3, §4, §5, §6, §7, §8, §9

Substance	% KD Mouse (GATA3 mRNA [1])	% KD Human (GATA3 mRNA [2])
30253-DC: GATA3 siNA duplex, site 644: sense B GGGccucAGccAcuccuAc TTB (SEQ 59), antisense GUAGGAGuGGcuGAGGcccUU (SEQ 60) (sense GGGCCUCAGCCACUCCUACTT; antisense GUAGGAGUGGCUGAGGCCCUU; chemistry not fully specified)	−6 ± 1%	−1 ± 11%
30254-DC: GATA3 siNA duplex, site 619: sense B GGcAGcAcccGGAcAcGcA TTB (SEQ 61), antisense UGCGuGuccGGGuGcuGccUU (SEQ 62) (sense GGCAGCACCCGGACACGCATT; antisense UGCGUGUCCGGGUGCUGCCUU; chemistry not fully specified)	6 ± 5%	−27 ± 15%
30255-DC: GATA3 siNA duplex, site 1085: sense B ccGGcAGGAcGAGAAAGAG TTB (SEQ 63), antisense CUCuuucucGuccuGccGGUU (SEQ 64) (sense CCGGCAGGACGAGAAAGAGTT; antisense CUCUUUCUCGUCCUGCCGGUU; sense: DNA at AGT, 2'-fluoro at C, [invAb] at 5' end, 3' end, backbone not given here; antisense: sugars from the 5' end rrrffffffmffffmffmmmm, backbone not given here)	40 ± 3%	26 ± 11%
30256-DC: GATA3 siNA duplex, site 719: sense B cGGucAAGGcAAccAcGuc TTB (SEQ 65), antisense GACGuGGuuGccuuGAccGUU (SEQ 66) (sense CGGUCAAGGCAACCACGUCTT; antisense GACGUGGUUGCCUUGACCGUU; chemistry not fully specified)	1 ± 6%	−19 ± 5%
30257-DC: GATA3 siNA duplex, site 1830: sense B ccAuccAGccuGuccuuuG TTB (SEQ 67), antisense CAAAGGAcAGGcuGGAuGGUU (SEQ 68) (sense CCAUCCAGCCUGUCCUUUGTT; antisense CAAAGGACAGGCUGGAUGGUU; chemistry not fully specified)	−4 ± 5%	−3 ± 3%
30258-DC: GATA3 siNA duplex, site 990: sense B cAcGccAGcccGcAccucu TTB (SEQ 69), antisense AGAGGuGcGGGcuGGcGuGUU (SEQ 70) (sense CACGCCAGCCCGCACCUCUTT; antisense AGAGGUGCGGGCUGGCGUGUU; chemistry not fully specified)	−12 ± 4%	0 ± 4%
30259-DC: GATA3 siNA duplex, site 713: sense B cAucGAcGGucAAGGcAAc TTB (SEQ 71), antisense GUUGccuuGAccGucGAuGUU (SEQ 72) (sense CAUCGACGGUCAAGGCAACTT; antisense GUUGCCUUGACCGUCGAUGUU; chemistry not fully specified)	60 ± 1%	36 ± 2%
30262-DC: GATA3 siNA duplex, site 1818: sense B ccGAuGcAcccGccAuccA TTB (SEQ 77), antisense UGGAuGGcGGGuGcAucGGUU (SEQ 78) (sense CCGAUGCACCCGCCAUCCATT; antisense UGGAUGGCGGGUGCAUCGGUU; chemistry not fully specified)	1 ± 7%	10 ± 11%
30264-DC: GATA3 siNA duplex, site 690: sense B GAGGAGGuGGAuGuGcuuu TTB (SEQ 81), antisense AAAGcAcAuccAccuccucUU (SEQ 82) (sense GAGGAGGUGGAUGUGCUUUTT; antisense AAAGCACAUCCACCUCCUCUU; chemistry not fully specified)	−18 ± 0%	−20 ± 12%
30265-DC: GATA3 siNA duplex, mouse site 2025: sense B GcccGAAAGcGAcAGAucu TTB (SEQ 83), antisense AGAucuGucGcuuucGGGcUU (SEQ 84) (sense GCCCGAAAGCGACAGAUCUTT; antisense AGAUCUGUCGCUUUCGGGCUU; chemistry not fully specified)	58 ± 0%	−8 ± 13%
30266-DC: GATA3 siNA duplex, mouse site 1258: sense B cccuAuGuGcccGAGuAcA TTB (SEQ 85), antisense UGUAcucGGGcAcAuAGGGUU (SEQ 86) (sense CCCUAUGUGCCCGAGUACATT; antisense UGUACUCGGGCACAUAGGGUU; chemistry not fully specified)	8 ± 5%	−3 ± 5%
30267-DC: GATA3 siNA duplex, mouse site 1324: sense B GGGuucGGAuGuAAGucGA TTB (SEQ 87), antisense UCGAcuuAcAuccGAAcccUU (SEQ 88) (sense GGGUUCGGAUGUAAGUCGATT; antisense UCGACUUACAUCCGAACCCUU; chemistry not fully specified)	40 ± 1%	−13 ± 15%
30268-DC: GATA3 siNA duplex, mouse site 1533: sense B GAcAuccuGcGcGaacuGu TTB (SEQ 89), antisense ACAGuucGcGcAGGAuGucUU (SEQ 90) (sense GACAUCCUGCGCGAACUGUTT; antisense ACAGUUCGCGCAGGAUGUCUU; chemistry not fully specified)	17 ± 2%	16 ± 3%
30269-DC: GATA3 siNA duplex, mouse site 1449: sense B cuGcGGAcucuAccAuAAA TTB (SEQ 91), antisense UUUAuGGuAGAGuccGcAGUU (SEQ 92) (sense CUGCGGACUCUACCAUAAATT; antisense UUUAUGGUAGAGUCCGCAGUU; sense: DNA at AGT, 2'-fluoro at CU, [invAb] at 5' end, 3' end, backbone not given here; antisense: sugars from the 5' end rrrmfmmfmmmmfffmfmmmm, backbone not given here)	83 ± 0%	−36 ± 9%
30270-DC: GATA3 siNA duplex, mouse site 1960: sense B ccAAGuGuGcGAAGAGuuc TTB (SEQ 93), antisense GAAcucuucGcAcAcuuGGUU (SEQ 94, row printed as 30269-DC) (sense CCAAGUGUGCGAAGAGUUCTT; antisense GAACUCUUCGCACACUUGGUU; chemistry not fully specified)	69 ± 4%	−25 ± 24%
30271-DC: GATA3 siNA duplex, mouse site 1620: sense B GuAcuAcAAGcuucAuAAu TTB (SEQ 95), antisense AUUAuGAAGcuuGuAGuAcUU (SEQ 96) (sense GUACUACAAGCUUCAUAAUTT; antisense AUUAUGAAGCUUGUAGUACUU; chemistry not fully specified)	70 ± 0%	10 ± 11%
